Several values for one entry are separate records, joined by “and”; a condition that tells them apart may be missing. Equal values may be shown once. Inconclusive results and toxic doses are left out. Square brackets hold non-standard residues; d marks the D form. Peptide text beside a SMILES is read from it. * marks the point of attachment. ξ: configuration not given here. Cbz = O=C(OCc1ccccc1)*; ξNva = CCCC(N)C(=O)O
System: P388 leukemia ip, CD2F1 mice, survival T/C
Experiment: NCI In Vivo Anticancer Drug Screen. Data for tumor model P388 Leukemia (intraperitoneal) in CD2F1 (CDF1) mice
Settings: endpoint: median survival time, higher = longer survival
How it was run: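 Mice carrying the transplanted tumor received test compound or vehicle. Survival was recorded in each group, and the value is the treated-group measurement divided by that of the vehicle-treated control group.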

[1] = dose: 6.25 mg/kg/injection, schedule: Q01DX009 (ip), vehicle: water
[2] = dose: 12.5 mg/kg/injection, schedule: Q01DX009 (ip), vehicle: saline
[3] = dose: 25.0 mg/kg/injection, schedule: Q01DX009 (ip), vehicle: saline
[4] = dose: 50.0 mg/kg/injection, schedule: Q01DX009 (ip), vehicle: saline
[5] = dose: 50.0 mg/kg/injection, schedule: Q01DX005 (ip), vehicle: Klucel (hydroxypropylcellulose) (HPC)
[6] = dose: 100.0 mg/kg/injection, schedule: Q01DX005 (ip), vehicle: Klucel (hydroxypropylcellulose) (HPC)
[7] = dose: 200.0 mg/kg/injection, schedule: Q01DX005 (ip), vehicle: Klucel (hydroxypropylcellulose) (HPC)
[8] = dose: 50.0 mg/kg/injection, schedule: Q01DX009 (ip), vehicle: saline with Tween-80
[9] = dose: 100.0 mg/kg/injection, schedule: Q01DX009 (ip), vehicle: saline with Tween-80
[10] = dose: 200.0 mg/kg/injection, schedule: Q01DX009 (ip), vehicle: saline with Tween-80
[11] = dose: 60.0 mg/kg/injection, schedule: Q01DX005 (ip), vehicle: saline with Tween-80
[12] = dose: 120.0 mg/kg/injection, schedule: Q01DX005 (ip), vehicle: saline with Tween-80
[13] = dose: 240.0 mg/kg/injection, schedule: Q01DX005 (ip), vehicle: saline with Tween-80
[14] = dose: 25.0 mg/kg/injection, schedule: Q01DX009 (ip), vehicle: saline with Tween-80
[15] = dose: 15.0 mg/kg/injection, schedule: Q01DX005 (ip), vehicle: saline with Tween-80
[16] = dose: 30.0 mg/kg/injection, schedule: Q01DX005 (ip), vehicle: saline with Tween-80

c1ccc(-c2csc(=[N+]3CCCCC3)s2)cc1
T/C [1]: 111 % of control and 117 % of control and 124 % of control

COC1CCC(NS(=O)(=O)c2ccc(N)cc2)[N-]N1.[Ag+] (stereo not drawn)
T/C [2]: 93 % of control
T/C [3]: 101 % of control
T/C [4]: 98 % of control and 109 % of control

CC1=C(C(=O)O)CCC1(C)C
T/C (dose: 100.0 mg/kg/injection, schedule: Q04DX002 (ip), vehicle: saline with Tween-80): 98 % of control
T/C (dose: 200.0 mg/kg/injection, schedule: Q04DX002 (ip), vehicle: saline with Tween-80): 101 % of control
T/C (dose: 400.0 mg/kg/injection, schedule: Q04DX002 (ip), vehicle: saline with Tween-80): 104 % of control

O=C(CCl)N1c2ccccc2Sc2ccc3ccccc3c21
T/C [4]: 95 % of control
T/C (dose: 100.0 mg/kg/injection, schedule: Q01DX009 (ip), vehicle: saline): 102 % of control
T/C (dose: 200.0 mg/kg/injection, schedule: Q01DX009 (ip), vehicle: saline): 113 % of control

O=[N+]([O-])c1cccc(C(Nc2nncs2)Nc2nncs2)c1
T/C [5]: 106 % of control and 96 % of control
T/C [6]: 95 % of control
T/C [7]: 94 % of control
T/C (dose: 400.0 mg/kg/injection, schedule: Q01DX005 (ip), vehicle: Klucel (hydroxypropylcellulose) (HPC)): 96 % of control

Nc1n[nH]c(CO)n1
T/C (dose: 6.25 mg/kg/injection, schedule: Q01DX009 (ip), vehicle: saline): 95 % of control
T/C [2]: 91 % of control
T/C [3]: 104 % of control
T/C [4]: 99 % of control

CCCC(NC(=O)OCc1ccccc1)C(=O)NCC(=O)NCC(=O)OC (stereo not drawn) (Cbz-[ξNva]-Gly-Gly-OMe)
T/C [5]: 110 % of control
T/C [6]: 113 % of control
T/C [7]: 113 % of control

[CH3][Ge]([CH3])([CH3])[N]=S=[N][Ge]([CH3])([CH3])[CH3]
T/C (dose: 12.5 mg/kg/injection, schedule: Q01DX005 (ip), vehicle: saline with Tween-80): 105 % of control
T/C (dose: 25.0 mg/kg/injection, schedule: Q01DX005 (ip), vehicle: saline with Tween-80): 100 % of control
T/C (dose: 50.0 mg/kg/injection, schedule: Q01DX005 (ip), vehicle: saline with Tween-80): 99 % of control and 100 % of control

BrCC1C[n+]2c(cc(-c3ccccc3)cc2-c2ccccc2)S1 (stereo not drawn)
T/C (dose: 3.75 mg/kg/injection, schedule: Q01DX005 (ip), vehicle: Klucel (hydroxypropylcellulose) (HPC)): 100 % of control
T/C (dose: 7.5 mg/kg/injection, schedule: Q01DX005 (ip), vehicle: Klucel (hydroxypropylcellulose) (HPC)): 99 % of control

CC#CC(=O)OC
T/C [8]: 94 % of control
T/C [9]: 101 % of control
T/C [10]: 98 % of control
T/C (dose: 400.0 mg/kg/injection, schedule: Q01DX009 (ip), vehicle: saline with Tween-80): 98 % of control

CC#CCOCC(O)CCl (stereo not drawn)
T/C (dose: 66.0 mg/kg/injection, schedule: Q04DX003 (ip), vehicle: saline): 110 % of control
T/C (dose: 100.0 mg/kg/injection, schedule: Q04DX003 (ip), vehicle: saline): 100 % of control
T/C (dose: 150.0 mg/kg/injection, schedule: Q04DX003 (ip), vehicle: saline): 120 % of control

C/C(=C\c1cc2c(cc1Cl)OCO2)[N+](=O)[O-]
T/C (dose: 100.0 mg/kg/injection, schedule: Q04DX002 (ip), vehicle: Klucel (hydroxypropylcellulose) (HPC)): 104 % of control
T/C (dose: 200.0 mg/kg/injection, schedule: Q04DX002 (ip), vehicle: Klucel (hydroxypropylcellulose) (HPC)): 102 % of control
T/C (dose: 400.0 mg/kg/injection, schedule: Q04DX002 (ip), vehicle: Klucel (hydroxypropylcellulose) (HPC)): 118 % of control

COc1cccc(CN2CCNCC2)c1
T/C [1]: 90 % of control
T/C (dose: 12.5 mg/kg/injection, schedule: Q01DX009 (ip), vehicle: water): 94 % of control
T/C (dose: 25.0 mg/kg/injection, schedule: Q01DX009 (ip), vehicle: water): 93 % of control
T/C (dose: 50.0 mg/kg/injection, schedule: Q01DX009 (ip), vehicle: water): 94 % of control

C(NC=C(c1ccccc1)c1ccccc1)=C(c1ccccc1)c1ccccc1
T/C (dose: 100.0 mg/kg/injection, schedule: Q01DX001 (ip), vehicle: Klucel (hydroxypropylcellulose) (HPC)): 103 % of control
T/C (dose: 200.0 mg/kg/injection, schedule: Q01DX001 (ip), vehicle: Klucel (hydroxypropylcellulose) (HPC)): 107 % of control
T/C (dose: 400.0 mg/kg/injection, schedule: Q01DX001 (ip), vehicle: Klucel (hydroxypropylcellulose) (HPC)): 103 % of control

C#CCNC1=C(C)C(=O)C2=C(C1=O)[C@H](COC(N)=O)[C@]1(OC)[C@@H]3N[C@@H]3CN21
T/C (dose: 12.0 mg/kg/injection, schedule: Q01DX001 (ip), vehicle: distilled water + Tween-80): 163 % of control
T/C (dose: 24.0 mg/kg/injection, schedule: Q01DX001 (ip), vehicle: distilled water + Tween-80): 173 % of control
T/C (dose: 48.0 mg/kg/injection, schedule: Q01DX001 (ip), vehicle: distilled water + Tween-80): 165 % of control and 265 % of control
T/C (dose: 96.0 mg/kg/injection, schedule: Q01DX001 (ip), vehicle: distilled water + Tween-80): 203 % of control

COc1ccc(Cc2coc3cc(OC)cc(OC)c3c2=O)cc1
T/C [11]: 98 % of control
T/C [12]: 97 % of control
T/C [13]: 94 % of control

CCOC(=O)C1Cc2c(OC)cc(OC)cc2OC1=O (stereo not drawn)
T/C [11]: 97 % of control
T/C [12]: 94 % of control
T/C [13]: 92 % of control

CSC(=N)c1cccc(OCCOc2ccccc2)c1
T/C (dose: 15.0 mg/kg/injection, schedule: Q01DX005 (ip), vehicle: Klucel (hydroxypropylcellulose) (HPC)): 96 % of control
T/C (dose: 30.0 mg/kg/injection, schedule: Q01DX005 (ip), vehicle: Klucel (hydroxypropylcellulose) (HPC)): 98 % of control
T/C (dose: 60.0 mg/kg/injection, schedule: Q01DX005 (ip), vehicle: Klucel (hydroxypropylcellulose) (HPC)): 91 % of control
T/C [11]: 93 % of control
T/C (dose: 120.0 mg/kg/injection, schedule: Q01DX005 (ip), vehicle: Klucel (hydroxypropylcellulose) (HPC)): 86 % of control
T/C [12]: 101 % of control
T/C (dose: 240.0 mg/kg/injection, schedule: Q01DX005 (ip), vehicle: Klucel (hydroxypropylcellulose) (HPC)): 91 % of control
T/C [13]: 99 % of control

O=C(Nc1cccc2ccccc12)Oc1cccc2cccnc12
T/C [14]: 89 % of control
T/C [8]: 86 % of control
T/C [9]: 89 % of control

CC(=C1N=c2ccccc2=N1)c1[nH]c(O)c2ccccc12
T/C [8]: 95 % of control
T/C [9]: 90 % of control
T/C [10]: 96 % of control

O=C(NC(CSSCC(NC(=O)OCc1ccccc1)C(=O)O)C(=O)O)OCc1ccccc1 (stereo not drawn)
T/C (dose: 100.0 mg/kg/injection, schedule: Q04DX003 (ip), vehicle: other): 100 % of control
T/C (dose: 200.0 mg/kg/injection, schedule: Q04DX003 (ip), vehicle: other): 100 % of control
T/C (dose: 400.0 mg/kg/injection, schedule: Q04DX003 (ip), vehicle: other): 100 % of control

O=C(C(=O)c1ccccn1)c1ccccn1
T/C (dose: 50.0 mg/kg/injection, schedule: Q04DX003 (ip), vehicle: saline with Tween-80): 100 % of control
T/C (dose: 100.0 mg/kg/injection, schedule: Q04DX003 (ip), vehicle: saline with Tween-80): 105 % of control
T/C (dose: 200.0 mg/kg/injection, schedule: Q04DX003 (ip), vehicle: saline with Tween-80): 109 % of control
T/C (dose: 400.0 mg/kg/injection, schedule: Q04DX003 (ip), vehicle: saline with Tween-80): 100 % of control

O=C(N/N=C/c1ccccc1Cl)c1cccnc1
T/C [11]: 90 % of control
T/C [12]: 93 % of control
T/C [13]: 89 % of control

C/C(=N/NS(=O)(=O)c1c(C(C)C)cc(C(C)C)cc1C(C)C)c1cccc2c1OCO2
T/C [15]: 91 % of control
T/C [16]: 93 % of control
T/C [11]: 87 % of control and 92 % of control

CCC(C)C(N)C(=O)N1CCCC1C(=O)O (stereo not drawn) (H-Ile-Pro-OH; configuration not given here)
T/C (dose: 60.0 mg/kg/injection, schedule: Q01DX005 (ip), vehicle: saline): 98 % of control
T/C (dose: 120.0 mg/kg/injection, schedule: Q01DX005 (ip), vehicle: saline): 98 % of control
T/C (dose: 240.0 mg/kg/injection, schedule: Q01DX005 (ip), vehicle: saline): 102 % of control

COc1ccc2c(c1)c(CO)c(CO)c[n+]2[O-]
T/C [11]: 100 % of control
T/C [12]: 96 % of control
T/C [13]: 102 % of control

CC(=O)Nc1ccc(/C=N/NC(=O)c2ccc(C)cc2)cc1
T/C [14]: 103 % of control
T/C [8]: 86 % of control

O=C(CN1CCN(c2ccccc2)CC1)n1nnc2ccccc21
T/C [11]: 93 % of control
T/C [12]: 87 % of control

CCc1nc(N)nc(N)c1-c1ccc(NCCCCCCCCCCCCN)c([N+](=O)[O-])c1
T/C [15]: 117 % of control
T/C [16]: 107 % of control
T/C [12]: 91 % of control

From PubChem BioAssay AID330 (DTP/NCI, 2004)
